# According to patent US20240254129A1, “HETEROCYCLIC COMPOUNDS AND USES THEREOF” (Kumquat Biosciences Inc., priority 2021, published 2024):
# pIC50: −log10 of the molar value.
# Key:
# [1] = target: GST-tagged K-Ras mutant / His-tagged hSOS1 (Homo sapiens, UniProt P01116); assay: HTRF assay, K-Ras mutant / SOS1 interaction; type: binding; conditions: compound nos. 401-703; read-out: IC50 against mutant Kras
# Summary of the method: (§1)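 HTRF read-out (ex 337, em 620 and 665 nm) of Ras–SOS1 equilibrium binding: Eu-anti-GST on GST-K-Ras, XL665-anti-6His on His-hSOS1. Incubation about 10 min or longer; IC50 fitted from emission ratio, compounds in duplicate at 10 μM down to 0.01 μM.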
# wildtype Kras / hSOS1 = target: T1, wildtype Kras / hSOS1 (Homo sapiens, UniProt P01116); assay: HTRF assay, wildtype Kras / SOS1 interaction; type: binding; conditions: compound nos. 401-703; read-out: IC50 against wildtype Kras
# T1 construct: made in house; host or cells: E. coli BL21 (DE3)
# T1 sequence (P01116 1-188 isoform P01116-2): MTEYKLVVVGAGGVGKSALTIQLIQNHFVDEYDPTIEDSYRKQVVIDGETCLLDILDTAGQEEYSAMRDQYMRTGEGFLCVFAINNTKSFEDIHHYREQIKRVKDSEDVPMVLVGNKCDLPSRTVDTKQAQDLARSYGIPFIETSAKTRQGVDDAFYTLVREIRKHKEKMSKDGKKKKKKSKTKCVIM
# Summary of the method: as §1
# Sequence of GST-tagged K-Ras mutant / His-tagged hSOS1 (P01116 whole entry G12D, form open): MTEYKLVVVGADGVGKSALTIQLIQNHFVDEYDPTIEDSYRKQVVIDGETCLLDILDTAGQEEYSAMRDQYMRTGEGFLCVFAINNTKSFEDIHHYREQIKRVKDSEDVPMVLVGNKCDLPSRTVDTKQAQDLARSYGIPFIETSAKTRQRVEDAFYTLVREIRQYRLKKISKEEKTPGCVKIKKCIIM
pIC50 [1],pIC50 (wildtype Kras / hSOS1),Structure (SMILES)
> 6.30,< 6.30,"Nc1nc2c(-c3c(Cl)cc4c(N5CCCCCCC5)nc(OC[C@@]56CCCN5C[C@H](F)C6)nc4c3F)ccc(F)c2s1 [Compound 667, 4-(4-(azocan-1-yl)-6-chloro-8-fluoro-2-(((2R,7aS)-2-fluorotetrahydro-1H-pyrrol-izin-7a(5H)-yl)methoxy)-quinazolin-7-yl)-7-fluoro-benzo[d]thiazol-2-amine]"
< 6.30,< 6.30,"Fc1c(-c2ccc(F)c3[nH]nc(I)c23)c(Cl)cc2c(N3CC4CCC(C3)N4)nc(OC[C@@]34CCCN3C[C@H](F)C4)nc12 [Compound 671, 4-(3,8-diazabicyclo[3.2.1]-octan-3-yl)-6-chloro-8-fluoro-7-(7-fluoro-3-iodo-1H-indazol-4-yl)-2-(((2R,7aS)-2-fluorotetra-hydro-1H-pyrrolizin-7a(5H)-yl)methoxy)quinazoline]"
> 6.30,< 6.30,"N#Cc1c(N)sc2c(F)ccc(-c3c(Cl)cc4c(N5CC6CCC(C5)N6)nc(OC[C@@]56CCCN5C[C@H](F)C6)nc4c3F)c12 [Compound 673, 4-(4-(3,8-diazabicyclo-[3.2.1]octan-3-yl)-6-chloro-8-fluoro-2-(((2R,7aS)-2-fluorotetrahydro-1H-pyrrol-izin-7a(5H)-yl)methoxy)-quinazolin-7-yl)-2-amino-7-fluorobenzo[b]thiophene-3-carbonitrile]"
> 6.30,< 6.30,"N#Cc1c(N)sc2c(F)ccc(-c3c(Cl)cc4c(N5C[C@H]6CC[C@@H](C5)N6C5CCOCC5)nc(OC[C@@]56CCCN5C[C@H](F)C6)nc4c3F)c12 [Compound 679, 2-amino-4-(6-chloro-8-fluoro-2-(((2R,7aS)-2-fluorotetrahydro-1H-pyrrol-izin-7a(5H)-yl)methoxy)-4-((1R,5S)-8-(tetrahydro-2H-pyran-4-yl)-3,8-diaza-bicyclo[3.2.1]octan-3-yl)-quinazolin-7-yl)-7-fluoro-benzo[b]thiophene-3-carbonitrile]"
> 6.30,< 6.30,"Nc1nc2c(-c3c(F)cc4c(N5CC6CCC(C5)N6)nc(OCC56CCCN5CCC6)nc4c3F)ccc(F)c2s1 [Compound 680, 4-(4-(3,8-diazabicyclo-[3.2.1]octan-3-yl)-6,8-difluoro-2-((tetrahydro-1H-pyrrolizin-7a(5H)-yl)methoxy)quinazolin-7-yl)-7-fluorobenzo[d]thiazol-2-amine]"
> 6.30,< 6.30,"CN(C)CC1CN(c2nc(OCC34CCCN3CCC4)nc3c(F)c(-c4ccc(F)c5sc(N)nc45)c(Cl)cc23)CCCO1 (centres unmarked) [Compound 681, 4-(6-chloro-4-(2-((dimethyl-amino)methyl)-1,4-oxaze-pan-4-yl)-8-fluoro-2-((tetra-hydro-1H-pyrrolizin-7a(5H)-yl)methoxy)quinazolin-7-yl)-7-fluorobenzo[d]thiazol-2-amine]"
> 6.30,< 6.30,"CC(C)CCN1[C@@H]2CC[C@H]1CN(c1nc(OCC34CCCN3CCC4)nc3c(F)c(-c4ccc(F)c5sc(N)nc45)c(Cl)cc13)C2 [Compound 682, 4-(6-chloro-8-fluoro-4-((1R,5S)-8-isopentyl-3,8-diazabicyclo[3.2.1]octan-3-yl)-2-((tetrahydro-1H-pyr-rolizin-7a(5H)-yl)methoxy)-quinazolin-7-yl)-7-fluoro-benzo[d]thiazol-2-amine]"
> 6.30,< 6.30,"Nc1nc2c(-c3c(Cl)cc4c(N5CCC6CCC(C5)N6)nc(OC[C@@]56CCCN5C[C@H](F)C6)nc4c3F)ccc(F)c2s1 (stereo partly drawn) [Compound 684, 4-(4-(3,9-diazabicyclo-[4.2.1]nonan-3-yl)-6-chloro-8-fluoro-2-(((2R,7aS)-2-fluorotetrahydro-1H-pyrrol-izin-7a(5H)-yl)methoxy)-quinazolin-7-yl)-7-fluoro-benzo[d]thiazol-2-amine]"
> 6.30,< 6.30,"Nc1nc2c(-c3c(Cl)cc4c(N5CC6CCCC5CN6)nc(OC[C@@]56CCCN5C[C@H](F)C6)nc4c3F)ccc(F)c2s1 (stereo partly drawn) [Compound 685, 4-(4-(6,8-diazabicyclo-[3.2.2]nonan-6-yl)-6-chloro-8-fluoro-2-(((2R,7aS)-2-fluorotetrahydro-1H-pyrrol-izin-7a(5H)-yl)methoxy)-quinazolin-7-yl)-7-fluoro-benzo[d]thiazol-2-amine]"
> 6.30,< 6.30,"Nc1nc2c(-c3c(Cl)cc4c(N5CC6CC5CCN6)nc(OC[C@@]56CCCN5C[C@H](F)C6)nc4c3F)ccc(F)c2s1 (stereo partly drawn) [Compound 686, 4-(4-(2,6-diazabicyclo-[3.2.1]octan-6-yl)-6-chloro-8-fluoro-2-(((2R,7aS)-2-fluorotetrahydro-1H-pyrrol-izin-7a(5H)-yl)methoxy)-quinazolin-7-yl)-7-fluoro-benzo[d]thiazol-2-amine]"
< 6.30,< 6.30,"Fc1ccc(-c2c(Cl)cc3c(N4CC5CCC(C4)N5)nc(OC[C@@]45CCCN4C[C@H](F)C5)nc3c2F)c2c1CCCC2 [Compound 689, 4-(3,8-diazabicyclo[3.2.1]-octan-3-yl)-6-chloro-8-fluoro-7-(4-fluoro-5,6,7,8-tetrahydronaphthalen-1-yl)-2-(((2R,7aS)-2-fluorotetra-hydro-1H-pyrrolizin-7a(5H)-yl)methoxy)quinazoline]"
> 6.30,< 6.30,"Nc1nc2c(-c3c(Cl)cc4c(N5CC6CCC(CC6)C5)nc(OC[C@@]56CCCN5C[C@H](F)C6)nc4c3F)ccc(F)c2s1 [Compound 690, 4-(4-(3-azabicyclo[3.2.2]-nonan-3-yl)-6-chloro-8-fluoro-2-(((2R,7aS)-2-fluorotetrahydro-1H-pyrrol-izin-7a(5H)-yl)methoxy)-quinazolin-7-yl)-7-fluoro-benzo[d]thiazol-2-amine]"

# More lines, now with the values behind:
Structure (SMILES),pIC50 [1],pIC50 (wildtype Kras / hSOS1)
"Nc1cccc(-c2ccccc2-c2c(Cl)cc3c(N4CCCCCC4)nc(OCC45CCCN4CCC5)nc3c2F)c1 [Compound 666, 2′-(4-(azepan-1-yl)-6-chloro-8-fluoro-2-((tetrahydro-1H-pyrrolizin-7a(5H)-yl)meth-oxy)quinazolin-7-yl)-[1,1′-biphenyl]-3-amine]",< 6.30,< 6.30
"Oc1cc(-c2c(F)cc3c(N4CC5CCC(C4)N5)nc(OCC45CCCN4CCC5)nc3c2F)c2ccccc2c1 [Compound 669, 4-(4-(3,8-diazabicyclo-[3.2.1]octan-3-yl)-6,8-difluoro-2-((tetrahydro-1H-pyrrolizin-7a(5H)-yl)methoxy)quinazolin-7-yl)naphthalen-2-ol]",> 6.30,< 6.30
"Nc1cc(-c2c(Cl)cc3c(N4CCCCCC4)nc(OCC45CCCN4CCC5)nc3c2F)ccc1F [Compound 670, 5-(4-(azepan-1-yl)-6-chloro-8-fluoro-2-((tetrahydro-1H-pyrrolizin-7a(5H)-yl)meth-oxy)quinazolin-7-yl)-2-fluoroaniline]",< 6.30,< 6.30
"CN1CCC[C@H]1COc1nc(N2CCCCC(N)C2)c2cc(Cl)c(-c3cccc4sc(N)nc34)c(F)c2n1 (stereo partly drawn) [Compound 672, 4-(4-(3-aminoazepan-1-yl)-6-chloro-8-fluoro-2-(((S)-1-methylpyrrolidin-2-yl)meth-oxy)quinazolin-7-yl)ben-zo[d]thiazol-2-amine]",> 6.30,< 6.30
"N#Cc1csc2cccc(-c3c(Cl)cc4c(N5CC6CCC(C5)N6)nc(OC[C@@]56CCCN5C[C@H](F)C6)nc4c3F)c12 [Compound 674, 4-(4-(3,8-diazabicyclo-[3.2.1]-octan-3-yl)-6-chloro-8-fluoro-2-(((2R,7aS)-2-fluorotetrahydro-1H-pyrrol-izin-7a(5H)-yl)methoxy)-quinazolin-7-yl)benzo[b]-thiophene-3-carbonitrile]",> 6.30,< 6.30
"Nc1nc2c(-c3c(Cl)cc4c(N5CCCCCC5)nc(OCC5(CN6CCCC6)CC5)nc4c3F)ccc(F)c2s1 [Compound 677, 4-(4-(azepan-1-yl)-6-chloro-8-fluoro-2-((1-(pyrrolidin-1-ylmethyl)cyclopropyl)meth-oxy)quinazolin-7-yl)-7-fluorobenzo[d]thiazol-2-amine]",> 6.30,< 6.30
"Cc1ccc2cnn(C#N)c2c1-c1c(Cl)cc2c(N3CC4CCC(C3)N4)nc(OC[C@@]34CCCN3C[C@H](F)C4)nc2c1F [Compound 678, 7-(4-(3,8-diazabicyclo-[3.2.1]octan-3-yl)-6-chloro-8-fluoro-2-(((2R,7aS)-2-fluorotetrahydro-1H-pyrrol-izin-7a(5H)-yl)methoxy)-quinazolin-7-yl)-6-methyl-1H-indazole-1-carbonitrile]",< 6.30,< 6.30
"Nc1c(-c2ccccc2)cccc1-c1c(Cl)cc2c(N3CC4CCC(C3)N4)nc(OCC34CCCN3CCC4)nc2c1F [Compound 683, 3-(4-(3,8-diazabicyclo-[3.2.1]-octan-3-yl)-6-chloro-8-fluoro-2-((tetrahydro-1H-pyrrolizin-7a(5H)-yl)meth-oxy)quinazolin-7-yl)-[1,1′-biphenyl]-2-amine]",< 6.30,< 6.30
"Cc1ccnc(C(C)C)c1-n1c(=O)nc(N2CC3CCC(C2)N3)c2cc(F)c(-c3c(O)cccc3F)nc21 [Compound 687, 4-(3,8-diazabicyclo[3.2.1]-octan-3-yl)-6-fluoro-7-(2-fluoro-6-hydroxyphenyl)-1-(2-isopropyl-4-methylpyr-idin-3-yl)pyrido[2,3-d]pyr-imidin-2(1H)-one]",< 6.30,< 6.30
"N#Cc1ccc2ccccc2c1-c1ccc2c(N3CC4CCC(C3)N4)nc(OC[C@@]34CCCN3C[C@H](F)C4)nc2c1F [Compound 691, 1-(4-(3,8-diazabicyclo-[3.2.1]octan-3-yl)-8-fluoro-2-(((2R,7aS)-2-fluorotetra-hydro-1H-pyrrolizin-7a(5H)-yl)methoxy)quinazolin-7-yl)-2-naphthonitrile]",< 6.30,< 6.30
